Like-named read-outs stand apart in the source and are kept apart here.
Test: Bioavailability: blood plasma nicotine levels after inhalation of air from the glass columns
Type: in vivo
Settings: human, inhaled or intranasal, test persons abstained from nicotine for 12 h, read-out: Plasma nicotine, peak value
Method: Untreated tobacco was used as reference.
The bioavailability of nicotine, i.e. the blood plasma nicotine levels, after inhalation of air from the glass columns prepared as described above at 65° C. and 75° C., respectively was also investigated. The test persons had abstained from smoking or having nicotine in any other way for 12 h before the test.

Compound: CN1CCCC1c1cccnc1 (centres unmarked) [nicotine]
- Cmax (column at 65 °C): 5 ng/mL
- Cmax (column at 75 °C): 10 to 15 ng/mL

Source: US4907606A, “Tobacco compositions, method and device for releasing essentially pure nicotine” (AB Leo, priority 1984, dated 1990)
